These results are taken from PMC8105289 (European journal of medicinal chemistry, 2021).

One series can be described thus: shake-flask. As to conditions: not told.
A short description of a further series: potentiometric titration. To be noted: not told.
Series [1] is described as follows: Parallel artificial membrane permeability assay. As to conditions: for Papp: PAMPA; for PAMPA logPapp: log of the apparent permeability coefficient; for PAMPA % retention (membrane retention): Corning Gentest pre-coated PAMPA plate, HPLC-UV.
Series [2] can be described thus: logP / logD7.4 by potentiometric titration. To be noted: for logD: n-octanol/aqueous buffer, pH 7.4; for logP: n-octanol/water.
Series [3] in a line: pKa by potentiometric titration.
Series [4] in a line: logD7.4 by shake-flask method. As to conditions: for logD: n-octanol/aqueous buffer, pH 7.4.
Where [5] appears, read: ionic strength adjusted water (0.15 M KCl), pKa, potentiometric titration, Sirius T3, 0.15 M KCl.
Setting [6] is: ionic strength adjusted water (0.15 M KCl), pKa units higher than the pKa value of 9.
Setting [7] is: potentiometric titration, Sirius T3, 0.15 M KCl.
The mark [8] stands for this setting: potentiometric titration, Sirius T3.

Marks after values point to notes of the source that are not given here.

For the molecule `CN(C)S(=O)(=O)NC1(CCc2ccccc2)CS(=O)C1` (stereo not drawn), in “shake-flask”, the “log partition n-octanol / aqueous buffer pH 7.4” value stood at 1.45 log10 concentration ratio.
In the case of `CS(=O)(=O)NC1(CCc2ccccc2)CS(=O)C1` (stereo not drawn), in the series “potentiometric titration”, the “log partition n-octanol / aqueous buffer pH 7.4” value worked out at 0.87 log10 concentration ratio and the “log partition n-octanol / water (0.15 M KCl)” value is listed as 0.88±0.02 log10 concentration ratio.
With `O=S1CC(CCc2ccccc2)(NS(=O)(=O)c2ccccc2)C1` (stereo not drawn), the “log partition n-octanol / aqueous buffer pH 7.4” value in the series “shake-flask” is 0.76 log10 concentration ratio.
Take `CC1(NS(=O)(=O)CCc2ccccc2)COC1` [Compound 13, N-(3-Methyloxetan-3-yl)-2-phenylethane-1-sulfonamide]: in series [1], the Papp came to 6.79 ×10⁻⁶ cm/s and the “PAMPA logPapp” value is −5.17. For the same molecule, in series [2], the log distribution coefficient (logD) amounted to 1.58 and the log partition coefficient (logP) is 1.58 ± 0.06. In “ΔlogP” (logPoctanol-water − logPcyclohexane-water), the ΔlogPcyclohexane is reported as 1.87 ± 0.04. This molecule returned a ΔlogPheptane in “ΔlogP” (logPoctanol-water − logPheptane-water) of 1.60 ± 0.05. The molecule further yielded a ΔlogPtoluene in the series “ΔlogP” (logPoctanol-water − logPtoluene-water) of 0.43 ± 0.04. Further, in “potentiometric titration”, the “log partition n-octanol / aqueous buffer pH 7.4” value is listed as 1.58 log10 concentration ratio and the “log partition n-octanol / water (0.15 M KCl)” value is reported as 1.58±0.06 log10 concentration ratio.
The molecule `CC(=O)NC1(CCc2ccccc2)CS(=O)(=O)C1` [Compound 14, N-(1,1-Dioxido-3-phenethylthietan-3-yl)acetamide] returned a pKa in series [3] (setting [5]) of more than 12. In series [1], the apparent permeability (Papp) amounted to 2.11 ×10⁻⁶ cm/s and the “PAMPA logPapp” value is given as −5.68. Besides, in “shake-flask”, the “log partition n-octanol / aqueous buffer pH 7.4” value is given as 1.18 log10 concentration ratio. Besides, the logD in series [4] is 1.18.
As for `O=S(=O)(NC1(CCc2ccccc2)COC1)c1ccccc1` [Compound 16, N-(3-Phenethyloxetan-3-yl)benzenesulfonamide], in series [1], the “PAMPA % retention (membrane retention)” value is 0.260%, the Papp stood at 7.06 ×10⁻⁶ cm/s and the “PAMPA logPapp” value was −5.2. Besides, in the series “shake-flask”, the “log partition n-octanol / aqueous buffer pH 7.4” value worked out at 2.76 log10 concentration ratio. In series [4], this molecule came in with a logD of 2.76.
`CN(C)S(=O)(=O)NC1(CCc2ccccc2)COC1` [Compound 17, N,N-Dimethyl-[3-(2-phenylethyl)oxetane-3-yl]sulfamoyl-amine]: in series [1], the Papp was determined as 10.2 ×10⁻⁶ cm/s and the “PAMPA logPapp” value is −4.99. In addition, in “shake-flask”, the “log partition n-octanol / aqueous buffer pH 7.4” value is recorded as 1.96 log10 concentration ratio. In series [4], this molecule gave a logD of 1.96.
The molecule `CS(=O)(=O)NC1(CCc2ccccc2)CSC1` [Compound 18, N-(3-Phenethylthietan-3-yl)methanesulfonamide] gave a pKa in series [3] (setting [6]) of more than 5. In series [1], the Papp was found to be 14.6 ×10⁻⁶ cm/s and the “PAMPA logPapp” value was −4.8. Further, the “log partition n-octanol / aqueous buffer pH 7.4” value in the series “shake-flask” was 2.44 log10 concentration ratio. The molecule further returned a logD in series [4] of 2.44.
Take `O=S(=O)(NC1(CCc2ccccc2)CSC1)c1ccccc1` [Compound 19, N-(3-Phenethylthietan-3-yl)benzenesulfonamide]: the pKa in series [3] (setting [5]) is more than 12. Besides, the “log partition n-octanol / aqueous buffer pH 7.4” value in the series “shake-flask” turned out to be 2.96 log10 concentration ratio. The molecule also displayed a logD in series [4] of 2.96.
For the molecule `CN(C)S(=O)(=O)NC1(CCc2ccccc2)CSC1` [Compound 20, N,N-Dimethyl-[3-(2-phenylethyl)thietan-3-yl]sulfamoyl-amine], in series [1], the “PAMPA % retention (membrane retention)” value worked out at 0.373%, the Papp came out at 11.4 ×10⁻⁶ cm/s and the “PAMPA logPapp” value was −4.9. Besides, the “log partition n-octanol / aqueous buffer pH 7.4” value in the series “shake-flask” is 2.83 log10 concentration ratio. The logD in series [4] was found to be 2.83.
Regarding `CS(=O)(=O)N[C@]1(CCc2ccccc2)C[S@+]([O-])C1` [Compound 21, cis-N-(1-Oxido-3-phenethylthietan-3-yl)methanesulfonamide], the “pKa units higher than the pKa value of 9” value in series [3] is more than 5. The pKa in series [3] (setting [7]) amounted to 9.87±0.01. In series [2] (setting [8]), this molecule gave a logP of 0.88±0.02.
Molecule `CN(C)S(=O)(=O)N[C@]1(CCc2ccccc2)C[S@+]([O-])C1` [Compound 23, cis-3-[(Dimethylsulfamoyl)amino]-3-(2-phenylethyl)-1lambda4-thietan-1-one] displayed a pKa in series [3] (setting [7]) of 10.33±0.02. The “PAMPA logPapp” value in series [1] was −5.47. In series [4] (n-octanol/aqueous buffer pH 7.4, shake-flask assay run by Analiza), the logD7.4 is reported as 1.45^†.
In series [3] (setting [6]), `CS(=O)(=O)NC1(CCc2ccccc2)CS(=O)(=O)C1` [Compound 24, N-(1,1-Dioxido-3-phenethylthietan-3-yl)methanesulfonamide] displayed a pKa of more than 5. In addition, in series [1], the Papp amounted to 3.66 ×10⁻⁶ cm/s and the “PAMPA logPapp” value is given as −5.4. Further, in series [2], the logD came out at 1.03 and the logP came out at 1.03 ± 0.01. Besides, in “potentiometric titration”, the “log partition n-octanol / aqueous buffer pH 7.4” value was 1.03 log10 concentration ratio and the “log partition n-octanol / water (0.15 M KCl)” value stood at 1.03±0.01 log10 concentration ratio.
As for `O=S1(=O)CC(CCc2ccccc2)(NS(=O)(=O)c2ccccc2)C1` [Compound 25, N-(1,1-Dioxido-3-phenethylthietan-3-yl)benzenesulfonamide], the “log partition n-octanol / aqueous buffer pH 7.4” value in the series “shake-flask” is recorded as 1.89 log10 concentration ratio. Also, the logD in series [4] turned out to be 1.89.
`CN(C)S(=O)(=O)NC1(CCc2ccccc2)CS(=O)(=O)C1` [Compound 26, 3-[(Dimethylsulfamoyl)amino]-3-(2-phenylethyl)-1lambda6-thietane-1,1-dione]: in series [1], the “PAMPA % retention (membrane retention)” value came to 0.105%, the Papp stood at 4.43 ×10⁻⁶ cm/s and the “PAMPA logPapp” value is −5.35. Besides, in series [2], the logD came out at 1.82 and the logP came to 1.83 ± 0.05. For the same molecule, in “potentiometric titration”, the “log partition n-octanol / aqueous buffer pH 7.4” value is 1.82 log10 concentration ratio and the “log partition n-octanol / water (0.15 M KCl)” value worked out at 1.83±0.05 log10 concentration ratio.
With `CS(=O)(=O)Nc1cc(-c2ccccc2)on1` [Compound 27, N-(5-Phenylisoxazol-3-yl)methanesulfonamide], in series [1], the Papp was 1.16 ×10⁻⁶ cm/s and the “PAMPA logPapp” value is recorded as −5.94. In series [2], this molecule had a logD of -0.42 and a lipophilicity (logP) of 0.58 ± 0.02. For the same molecule, in “potentiometric titration”, the “log partition n-octanol / aqueous buffer pH 7.4” value is reported as −0.42 log10 concentration ratio and the “log partition n-octanol / water (0.15 M KCl)” value came out at 0.58±0.02 log10 concentration ratio.
As to `O=S(=O)(Nc1cc(-c2ccccc2)on1)c1ccccc1` [Compound 28, N-(5-Phenylisoxazol-3-yl)benzenesulfonamide], in series [1], the Papp was found to be 5.79 ×10⁻⁶ cm/s and the “PAMPA logPapp” value is −5.24. Moreover, in series [2], the log distribution coefficient (logD) amounted to 0.99 and the logP turned out to be 1.76 ± 0.03. Besides, in the series “potentiometric titration”, the “log partition n-octanol / aqueous buffer pH 7.4” value came to 0.99 log10 concentration ratio and the “log partition n-octanol / water (0.15 M KCl)” value is 1.76±0.03 log10 concentration ratio.
In series [3] (setting [7]), `CN(C)S(=O)(=O)Nc1cc(-c2ccccc2)on1` [Compound 29, N-(5-Phenylisoxazol-3-yl)-N,N-dimethylaminesulfonamide] registered a pKa of 5.62±0.02. Moreover, the “PAMPA % retention (membrane retention)” value in series [1] is listed as 0.131%. Besides, the log partition coefficient (logP) in series [2] (setting [8]) was determined as 0.85±0.01. Besides, in “potentiometric titration”, the “log partition n-octanol / aqueous buffer pH 7.4” value was 0.42 log10 concentration ratio and the “log partition n-octanol / water (0.15 M KCl)” value came out at 0.85±0.01 log10 concentration ratio.
In the case of `CS(=O)(=O)Nc1cn(-c2ccccc2)nn1` [Compound 30, N-(1-Phenyl-1H-1,2,3-triazol-4-yl)methanesulfonamide], in series [1], the Papp came to 2.42 ×10⁻⁶ cm/s and the “PAMPA logPapp” value is listed as −5.62. In series [2], this molecule came in with a logD of 0.06 and a log partition coefficient (logP) of 1.16 ± 0.03. Besides, in “potentiometric titration”, the “log partition n-octanol / aqueous buffer pH 7.4” value amounted to 0.06 log10 concentration ratio and the “log partition n-octanol / water (0.15 M KCl)” value stood at 1.16±0.03 log10 concentration ratio.
As for `O=S(=O)(Nc1cn(-c2ccccc2)nn1)c1ccccc1` [Compound 31, N-(1-Phenyl-1H-1,2,3-triazol-4-yl)benzenesulfonamide], in series [1], the Papp stood at 4.09 ×10⁻⁶ cm/s and the “PAMPA logPapp” value was −5.39. In series [2], this molecule registered a pH-dependent lipophilicity (logD) of 1.06 and a lipophilicity (logP) of 2.55 ± 0.04. For the same molecule, in “potentiometric titration”, the “log partition n-octanol / aqueous buffer pH 7.4” value is 1.06 log10 concentration ratio and the “log partition n-octanol / water (0.15 M KCl)” value is recorded as 2.55±0.04 log10 concentration ratio.
In series [3] (setting [7]), `CN(C)S(=O)(=O)Nc1cn(-c2ccccc2)nn1` [Compound 32, N-(1-Phenyl-1H-1,2,3-triazol-4-yl)-N,N-dimethylaminesulfonamide] showed a pKa of 6.42±0.01. Also, in series [1], the “PAMPA logPapp” value is recorded as −5.42. The logP in series [2] (setting [8]) amounted to 1.72±0.01. Besides, in the series “potentiometric titration”, the “log partition n-octanol / aqueous buffer pH 7.4” value is on record as 0.69 log10 concentration ratio and the “log partition n-octanol / water (0.15 M KCl)” value is given as 1.72±0.01 log10 concentration ratio.
